Assay results as given in patent publication US20170258871A1, “COMBINED USE OF A TRKA INHIBITOR AND AN EPHA2 INHIBITOR FOR USING IN THE TREATMENT OF SOLID CANCERS, AND METHOD FOR THE PROGNOSIS OF SURVIVAL OF A PATIENT WHO HAS A SOLID CANCER” (UNIVERSITE DES SCIENCES ET TECHNOLOGIES DE LILLE, priority 2014, published 2017).

Assays:
Format in all cases: cell-based
PC3 cells = test: In vitro invasion test (Boyden chamber), PC3
Protocol: (§1) (0.5 nM) for a period of 20 hours. The untreated cells represent the control and determine a base invasion of 100%.
FIG. 3: A study of the involvement of EphA2 on the pro-invasive effects of proNGF. The invasion test is carried out on cells MDA-MB-231 (A), DU145 (B) and PC3 (C) transfected with a siRNA against EphA2 (siEphA2), TrkA (siTrkA) or a random siRNA (siCTRL). The transfected siCTRL cells are treated to provide a control and determine a base invasion of 100% (white column). […] The efficacy of the siRNA is measured by the western blot method through the use of specific antibodies against TrkA, EphA2, and actin (load control).
The Boyden Chambers (Transwell®; BD Biosciences; France) were recovered from a biological matrix (type 1 collagen from rats diluted to 400 μg·mL-1 in EMEM-0.1% FCS medium; Millipore). The cells were then seeded with 100,000 cells/well on PET membranes (polyethylene terephtalate; dia.: 10.5 mm; porosity: 8 μm) of Boyden Chambers and held in an EMEM-0.1% FCS medium. […] (0.5 nM) in the lower part. […] The number of cells was estimated after staining with Hoechst 33 258 (1 mM; 30 min; 20° C.) by counting the nuclei thereof using fluorescence microscopy on a total of 5 five randomly chosen fields (lens 10×; λ-excitation: 345 nm; λ-emission: 478 nm; Eclipse Ti) using the ImageJ software. […]

CAL33 cells = test: In vitro invasion test (Boyden chamber), CAL 33; details: NGF 16 nM or proNGF N.C. 0.5 nM, untreated cells = 100%
Protocol: as §1
(§2) The Boyden Chambers (Transwell®; BD Biosciences; France) were recovered from a biological matrix (type 1 collagen from rats diluted to 400 μg·mL-1 in EMEM-0.1% FCS medium; Millipore). The cells were then seeded with 100,000 cells/well on PET membranes (polyethylene terephtalate; dia.: 10.5 mm; porosity: 8 μm) of Boyden Chambers and held in an EMEM-0.1% FCS medium. […] (0.5 nM) in the lower part. After 20 hours of culture, they were washed twice with PBS 1× and fixed (ice cold methanol; 15 min; −20° C.). The non-invasive cells (upper face of the Transwell®) were eliminated by scraping. The number of cells was estimated after staining with Hoechst 33 258 (1 mM; 30 min; 20° C.) by counting the nuclei thereof using fluorescence microscopy on a total of 5 five randomly chosen fields (lens 10×; λ-excitation: 345 nm; λ-emission: 478 nm; Eclipse Ti) using the ImageJ software. Each experiment was performed in triplicate. Statistical analysis of the results was performed by analysis of variance ANOVA (Bonferroni post-hoc test).

FaDu cells = test: In vitro invasion test (Boyden chamber), FaDu; details: NGF 16 nM or proNGF N.C. 0.5 nM, untreated cells = 100%
Protocol: as §1, §2

Akt = test: Western blot of Akt phosphorylation in MDA-MB-231 cells
Protocol: (§3) FIG. 8: A study of the role of TrkA and EphA2 in the activation of proteins Akt and Src. Cells MDA-MB-231 were respectively treated with a TrkA inhibitor (K252a), an anti-EphA2 siRNA (siEphA2), an inhibitor of PI3-K (LY294002) and an inhibitor of Src (SKI-1).
(§4) A and D. Cells MDA-MB-231 HA-TrkA were treated with proNGF N.C. […] The phosphorylation of Akt and Src was determined by using phospho-specific antibodies. The equal charge was verified using Akt and Src antibodies.
(§5) C and F. The phosphorylation of Akt and Src was determined in the total lysates coming from cells MDA-MB-231 transfected with siEphA2 and treated for 30 minutes with proNGF N.C. (C) or NGF (F).
(§6) After treatment, the cells were lysed (lysis buffer: 40 mM HEPES pH 7.5; 1 mM EDTA pH 8.0; 120 mM NaCl; 10 mM NaPPi; 50 mM NaF; 1.5 mM Na3VO4; 1% Triton X 100; 0.1% SDS; 1 mM PMSF; 10% glycerol and 1/100 th of protease inhibitor cocktail (Sigma) (20 min; 4° C.)). The lysates were recovered and clarified by centrifugation (12,000 g; 10 min; 4° C.). The supernatant was then stored at −80° C. until use. The protein extracts were diluted to 2 μg·μL−1 in a Laemmli 1× buffer (7 min; 100° C.) then deposited and separated on SDS-PAGE (concentration gel 3.6% acrylamide and separation gel 7.5% to 10% acrylamide (thickness 1 mm); 180 V; 10 min then 200 V constant; until output of the migration front). The proteins separated by SDS-PAGE were transferred according to the semi-dry transfer method (buffer: 48 mM Tris base, 39 mM glycine, 1.64 mM SDS, 20% methanol (v/v); 14 V; 15 min per gel) or liquid (buffer: 25 mM Tris base and 192 mM glycine; 15% methanol (v/v); 100 V; 30 min) on nitrocellulose membranes (0.45 μm; Whatman; Germany) or PVDF (0.45 μm; Immobilon P; Millipore; France). The PVDF membrane was “activated” beforehand (methanol; 10 min; 20° C.). The membranes were then saturated (TBS-T; 5% BSA; 1 h; 20° C.) then incubated (16 h; 4° C.) with the chosen primary antibody. […] The membranes were placed in an image analyser (LAS 4000; Fuji) connected to a computer which allowed image generation (software Image Reader LAS 4000).
(§7) The antibody against EphA2 was sc-924 (Santa Cruz), the antibody against sortilin was BD Bioscience 612101, the antibody against TrkA was sc 14024 (Santa Cruz), the antibody against HA was MMS-101R (Covance), the antibody against Akt was Cell Signaling 4691, the antibody against phospho-Akt (Ser 473) was Cell Signaling 9271, the antibody against Src was Cell Signaling 2109 (WB), the antibody against PhosphoSrc (Tyr416) was Cell Signaling 2105 and the antibody against actin was Sigma A2066.
(§8) Proteins Akt and Src were both involved in the pro-invasive effect of proNGF. In order to identify the role of TrkA and EphA2 in the activation of proteins Akt and Src, cells MDA-MB-231 were treated respectively with a TrkA inhibitor (K252a), an anti-EphA2 siRNA (siEphA2) the sequence of which is presented in table 1, a PI3-K inhibitor (LY294002) (the activation of Akt in effect underlies that of PI3-K) and an inhibitor of Src (SKI-1).

Src = test: Western blot of Src phosphorylation in MDA-MB-231 cells
Protocol: as §3, §4, §5, §6, §7, §8

EphA2 = test: Western blot of EphA2 expression after siRNA; details: MDA-MB-231 HA-TrkA transfected with siEphA2
Protocol: D. Cells MDA-MB-231 HA-TrkA were transfected with siEphA2 and then treated with proNGF N.C. (30 min). The recruitment of the sortilin and EphA2 was determined after anti-HA immunoprecipitation.
The sequences of siRNA used against EphA2 (siEphA2) at 100 pmol for each transfection, and against TrkA (pool of 3 siTrkA 1, 2 and 3) are given in table 1. The transfections of siRNA are produced by means of […]in™ according to the manufacturers instructions (POL409-10, Polyplus transfection, Ozyme, Saint Quentin en Yvelines, France).
After treatment, the cells were lysed (lysis buffer: 40 mM HEPES pH 7.5; 1 mM EDTA pH 8.0; 120 mM NaCl; 10 mM NaPPi; 50 mM NaF; 1.5 mM Na3VO4; 1% Triton X 100; 0.1% SDS; 1 mM PMSF; 10% glycerol and 1/100 th of protease inhibitor cocktail (Sigma) (20 min; 4° C.)). The lysates were recovered and clarified by centrifugation (12,000 g; 10 min; 4° C.). The supernatant was then stored at −80° C. until use. The protein extracts were diluted to 2 μg·μL−1 in a Laemmli 1× buffer (7 min; 100° C.) then deposited and separated on SDS-PAGE (concentration gel 3.6% acrylamide and separation gel 7.5% to 10% acrylamide (thickness 1 mm); 180 V; 10 min then 200 V constant; until output of the migration front). […] The membranes were placed in an image analyser (LAS 4000; Fuji) connected to a computer which allowed image generation (software Image Reader LAS 4000). […]

[1] = NGF 30 min, 10 nM K252a or siEphA2

In the case of “NGF: Nerve Growth Factor; recombinant human β NGF supplied by Scil Proteins”, the “cell invasion under growth factor” value (PC3 cells; NGF 16 nM or proNGF N.C. 0.5 nM, untreated cells = 100%) is reported as “increased cell invasion”, the “cell invasion under growth factor” value (CAL33 cells) is reported as “increased cell invasion” and the “cell invasion under growth factor” value (FaDu cells) is reported as “did not respond”. For the same substance, the “activation (phosphorylation) of Akt by the ligand” value (Akt; MDA-MB-231 HA-TrkA, 30 min) was “increased” and the “activation (phosphorylation) of Src by the ligand” value (Src; MDA-MB-231 HA-TrkA, 30 min) was “increased”.

“siEphA2: siRNA against EphA2, GCAAGGAAGUGGUACUGCUGGACUU (SEQ ID NO: 1) (listed as RNA, chemistry not given here)” was tested, and the “invasion induced by proNGF in siRNA-transfected cells” value (PC3 cells; siRNA transfection vs siCTRL, proNGF) was “abolished the invasion induced by proNGF”, the “expression of EphA2 protein” value (EphA2) was “completely abolished the expression” and the “effect on Akt phosphorylation induced by NGF” value (Akt; [1]) was “reduces only the base activation of phospho-Akt and phospho-Src but not the phosphorylation induced by the NGF”. For the same substance, the “effect on Src phosphorylation induced by NGF” value (Src; [1]) was “reduces only the base activation of phospho-Akt and phospho-Src but not the phosphorylation induced by the NGF” and the “effect on Src activation induced by proNGF” value (Src; proNGF N.C. 30 min, 10 nM K252a, 15 μM LY294002, 50 nM SKI-1 or siEphA2) was “reduced the phosphorylation of Src”.
